For one assay, the system named is MCF-7 cells. Briefly: Breast Cancer Cell Viability Assays (MCF-7, CellTiter-Glo). In kind it is cell-based. The note with it: 5 days' compound exposure; for IC50: Homo sapiens, MCF7, 120 h. The procedure:
MCF-7 cells were adjusted to a concentration of 20,000 cells per mL in RPMI containing 10% FBS and 20 mM HEPES. 16 microliters of the cell suspension (320 cells) was added to each well of a 384 well plate, and the cells were incubated overnight to allow the cells to adhere. The following day an eleven point, serial semilog dilution of each compound was added to the cells in 16 μL at a final concentration ranging from 0.3-0.000003 μM. After 5 days' compound exposure, 16 μL of CellTiter-GLo (Promega, Madison Wis.) was added to the cells, and the relative luminescence units (RLUs) of each well were determined. CellTiter-Glo added to 32 μL of medium without cells was used to obtain a background value. The Percent viability of each sample was determined as follows: (RLU sample−RLU background/RLU untreated cells−RLU background)×100=% viability. […]
For orientation: In ATP-based viability assays light output follows the ATP content of the culture.

A further assay concerns the target T1, ER-α in MCF-7 cells (Homo sapiens, UniProt P03372).
T1 construct: endogenous in cells; host or cells: MCF-7
T1 sequence (P03372 1-595): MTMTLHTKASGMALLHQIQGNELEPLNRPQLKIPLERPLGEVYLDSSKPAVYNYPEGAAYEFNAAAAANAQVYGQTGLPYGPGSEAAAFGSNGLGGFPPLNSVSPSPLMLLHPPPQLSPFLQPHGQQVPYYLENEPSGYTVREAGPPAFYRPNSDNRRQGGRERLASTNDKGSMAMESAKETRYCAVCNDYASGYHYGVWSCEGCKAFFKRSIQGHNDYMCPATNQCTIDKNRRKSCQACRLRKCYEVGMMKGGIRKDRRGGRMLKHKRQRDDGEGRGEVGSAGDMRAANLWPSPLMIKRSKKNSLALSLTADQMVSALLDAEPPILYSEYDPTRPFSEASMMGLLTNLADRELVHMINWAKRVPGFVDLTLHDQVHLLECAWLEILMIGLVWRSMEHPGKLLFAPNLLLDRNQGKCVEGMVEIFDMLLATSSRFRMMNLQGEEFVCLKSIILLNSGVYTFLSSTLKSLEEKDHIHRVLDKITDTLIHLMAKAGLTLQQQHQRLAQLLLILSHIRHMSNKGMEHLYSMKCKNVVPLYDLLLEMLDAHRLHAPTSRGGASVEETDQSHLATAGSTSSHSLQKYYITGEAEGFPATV
Briefly: Breast Cancer Cell ER-α In Cell Western Assay (SP1). The assay is classed as cell-based. The note with it: 4 or 24 hr post compound addition; for Emax: MCF7, SP1 antibody, read-out: ER-α In Cell Western Assay (SP1) Max Response; for DC50: SP1 antibody, read-out: ER-α In Cell Western Assay (SP1) IC50. The method, then:
MCF-7 cells were adjusted to a concentration of 200,000 cells per mL in RPMI containing 10% charcoal-stripped FBS and 20 mM HEPES. 16 microliters of the cell suspension (3200 cells) was added to each well of a poly-D-lysine 384 well plate, and the cells were incubated overnight to allow the cells to adhere. The following day an eleven point, serial semilog dilution of each compound was added to the cells in 16 μL at a final concentration ranging from 0.3-0.000003 μM. At 4 or 24 hr post compound addition, the cells were fixed (10% formalin in PBS) for 20 minutes. Cells were permeablized in PBS 0.1% Triton and blocked with LICOR blocking buffer (50 μl/well, 90′). The wells were then incubated overnight at 4° C. with SP1 rabbit monoclonal Ab (Thermo Scientific) diluted 1:1000 in LICOR blocking buffer/0.1% Tween-20. Wells which were treated with blocking buffer with Tween but no antibody were used as a background control. Wells were washed with 0.1% Tween-20/PBS and then incubated in goat anti-rabbit IRDye™ 800CW (LICOR Inc.; 1:10000) and DRAQ5 DNA dye (1:2000 for 2 mM stock) diluted in LICOR blocking buffer containing 0.1% Tween-20 and 0.01% SDS for 60 minutes. Cells were washed (50 μl/well, 5′ each) in 0.1% Tween-20/PBS. Plates were scanned on a LICOR Odyssey infrared imaging system. Integrated intensities in the 800 nm channel and 700 nm channel were measured to determine levels of ER and DNA respectively. Percent ER levels were determined as follows: (Integrated intensity 800 nm sample/integrated intensity 700 nm sample)/(Integrated intensity 800 nm untreated cells/integrated intensity 700 nm untreated cells)×100=% ER levels. […]

As for `O=C(O)/C=C/c1ccc(/C(=C(\c2ccc(F)cc2Cl)C2CCC2)c2ccc3[nH]ncc3n2)cc1` [Example 34, (E)-3-(4-((E)-2-(2-Chloro-4-fluorophenyl)-2-cyclobutyl-1-(1H-pyrazolo[4,3-b]pyridin-5-yl)vinyl)phenyl)acrylic acid], in the assay with MCF-7 cells, the “MCF7 Viability Assay Max Response” value is reported as “++ (++ = a single % value ≧ 40%)” and the IC50 is at most 0.1 µM. Further, on ER-α in MCF-7 cells, the Emax was at least 40% and the DC50 is at most 0.1 µM.
`CC(C)/C(=C(/c1ccc(/C=C/C(=O)O)cc1)c1ccc2[nH]ncc2c1)c1ccccc1Cl` [Example 35, (E)-3-(4-((E)-2-(2-Chlorophenyl)-1-(1H-indazol-5-yl)-3-methylbut-1-en-1-yl)phenyl)acrylic acid]: in the assay with MCF-7 cells, the “MCF7 Viability Assay Max Response” value is recorded as “++ (++ = a single % value ≧ 40%)” and the IC50 was at most 0.1 µM. For the same molecule, on ER-α in MCF-7 cells, the Emax was at least 40% and the DC50 is at most 0.1 µM.
As for `O=C(O)/C=C/c1ccc(/C(=C(\c2ccccc2)C2CCC2)c2ccc3[nH]nc(F)c3c2)cn1` [Example 36, (E)-3-(5-((Z)-2-Cyclobutyl-1-(3-fluoro-1H-indazol-5-yl)-2-phenylvinyl)pyridin-2-yl)acrylic acid], in the assay on MCF-7 cells, the “MCF7 Viability Assay Max Response” value is “++ (++ = a single % value ≧ 40%)” and the IC50 is at most 0.1 µM. At ER-α in MCF-7 cells, the Emax was at least 40% and the DC50 is at most 0.1 µM.
With `Cc1cc(/C(=C(\c2ccccc2)C2CCC2)c2ccc3[nH]nc(F)c3c2)ccc1/C=C/C(=O)O` [Example 37, (E)-3-(4-((E)-2-Cyclobutyl-1-(3-fluoro-1H-indazol-5-yl)-2-phenylvinyl)-2-methylphenyl)acrylic acid], in the assay with MCF-7 cells, the “MCF7 Viability Assay Max Response” value was “++ (++ = a single % value ≧ 40%)” and the IC50 is at most 0.1 µM. For the same molecule, at ER-α in MCF-7 cells, the Emax is at least 40% and the DC50 is at most 0.1 µM.
Turning to `COc1cc(/C=C/C(=O)O)ccc1/C(=C(\c1ccccc1)C1CCC1)c1ccc2[nH]nc(F)c2c1` [Example 38, (E)-3-(4-((Z)-2-Cyclobutyl-1-(3-fluoro-1H-indazol-5-yl)-2-phenylvinyl)-3-methoxyphenyl)acrylic acid], in the assay on MCF-7 cells, the “MCF7 Viability Assay Max Response” value was “++ (++ = a single % value ≧ 40%)” and the IC50 is at most 0.1 µM. In addition, at ER-α in MCF-7 cells, the Emax is at least 40% and the DC50 is at most 0.1 µM.
On to `Fc1n[nH]c2ccc(/C(=C(/c3ccccc3)C3CCC3)c3ccc(/C=C/c4cnc[nH]4)cc3)cc12` [Example 39, 5-((E)-1-(4-((E)-2-(1H-Imidazol-5-yl)vinyl)phenyl)-2-cyclobutyl-2-phenylvinyl)-3-fluoro-1H-indazole], for which, in the assay on MCF-7 cells, the “MCF7 Viability Assay Max Response” value is reported as “++ (++ = a single % value ≧ 40%)” and the IC50 was at most 0.1 µM. Further, at ER-α in MCF-7 cells, the Emax was at least 40% and the DC50 is at most 0.1 µM.
`N#Cc1ccc(/C(=C(\c2ccc(/C=C/C(=O)O)cc2)c2ccc3[nH]nc(F)c3c2)C2CCC2)c(Cl)c1` [Example 40, (E)-3-(4-((E)-2-(2-Chloro-4-cyanophenyl)-2-cyclobutyl-1-(3-fluoro-1H-indazol-5-yl)vinyl)phenyl)acrylic acid]: in the assay on MCF-7 cells, the “MCF7 Viability Assay Max Response” value is on record as “++ (++ = a single % value ≧ 40%)” and the IC50 was at most 0.1 µM. Also, at ER-α in MCF-7 cells, the Emax is at least 40% and the DC50 was at most 0.1 µM.
For the molecule `CC/C(=C(/c1ccc(/C=C/C(=O)O)cc1)c1ccc2[nH]ncc2c1)c1cccc(S(=O)(=O)C(F)(F)F)c1` [Example 41, (E)-3-(4-((E)-1-(1H-Indazol-5-yl)-2-(3-((trifluoromethyl)sulfonyl)phenyl)but-1-en-1-yl)phenyl)acrylic acid], in the assay on MCF-7 cells, the “MCF7 Viability Assay Max Response” value was “++ (++ = a single % value ≧ 40%)” and the IC50 was at most 0.1 µM. Also, at ER-α in MCF-7 cells, the Emax was at least 40% and the DC50 was at most 0.1 µM.
With `COc1ccc(/C(=C(\c2ccc(/C=C/C(=O)O)cc2)c2ccc3[nH]ncc3c2)C2CCC2)c(C#N)c1` [Example 42, (E)-3-(4-((E)-2-(2-Cyano-4-methoxyphenyl)-2-cyclobutyl-1-(1H-indazol-5-yl)vinyl)phenyl)acrylic acid], in the assay with MCF-7 cells, the “MCF7 Viability Assay Max Response” value is given as “++ (++ = a single % value ≧ 40%)” and the IC50 was at most 0.1 µM. Moreover, on ER-α in MCF-7 cells, the Emax is at least 40% and the DC50 is at most 0.1 µM.
For the molecule `N#Cc1ccc(/C(=C(\c2ccc(/C=C/C(=O)O)cc2)c2ccc3[nH]ncc3c2)C2CCC2)c(Cl)c1` [Example 43, (E)-3-(4-((E)-2-(2-Chloro-4-cyanophenyl)-2-cyclobutyl-1-(1H-indazol-5-yl)vinyl)phenyl)acrylic acid], in the assay on MCF-7 cells, the “MCF7 Viability Assay Max Response” value is “++ (++ = a single % value ≧ 40%)” and the IC50 is at most 0.1 µM. On ER-α in MCF-7 cells, the Emax is at least 40% and the DC50 was at most 0.1 µM.
As for `COc1ccc(/C(=C(\c2ccc(/C=C/C(=O)O)cc2)c2ccc3[nH]nc(F)c3c2)C2CCC2)c(C#N)c1` [Example 44, (E)-3-(4-((E)-2-(2-Cyano-4-methoxyphenyl)-2-cyclobutyl-1-(3-fluoro-1H-indazol-5-yl)vinyl)phenyl)acrylic acid], in the assay on MCF-7 cells, the “MCF7 Viability Assay Max Response” value was “++ (++ = a single % value ≧ 40%)” and the IC50 is at most 0.1 µM. On ER-α in MCF-7 cells, the Emax is at least 40% and the DC50 is at most 0.1 µM.
For the molecule `O=C(O)/C=C/c1ccc(/C(=C(\c2cccc(S(=O)(=O)C(F)(F)F)c2)C2CCC2)c2ccc3[nH]nc(F)c3c2)cc1` [Example 45, (E)-3-(4-((E)-2-Cyclobutyl-1-(3-fluoro-1H-indazol-5-yl)-2-(3-((trifluoromethyl)sulfonyl)phenyl)vinyl)phenyl)acrylic acid], in the assay on MCF-7 cells, the “MCF7 Viability Assay Max Response” value is “++ (++ = a single % value ≧ 40%)” and the IC50 was at most 0.1 µM. In addition, at ER-α in MCF-7 cells, the Emax was at least 40% and the DC50 is at most 0.1 µM.
On to `Cc1cnccc1/C(=C(\c1ccc(/C=C/C(=O)O)cc1)c1ccc2[nH]nc(F)c2c1)C1CCC1` [Example 46, (E)-3-(4-((E)-2-Cyclobutyl-1-(3-fluoro-1H-indazol-5-yl)-2-(3-methylpyridin-4-yl)vinyl)phenyl)acrylic acid], for which, in the assay on MCF-7 cells, the “MCF7 Viability Assay Max Response” value was “++ (++ = a single % value ≧ 40%)” and the IC50 was at most 0.1 µM. For the same molecule, at ER-α in MCF-7 cells, the Emax is at least 40% and the DC50 was at most 0.1 µM.
`O=C(O)/C=C/c1ccc(/C(=C(\c2ccncc2C(F)(F)F)C2CCC2)c2ccc3[nH]nc(F)c3c2)cc1` [Example 47, (E)-3-(4-((E)-2-Cyclobutyl-1-(3-fluoro-1H-indazol-5-yl)-2-(3-(trifluoromethyl)pyridin-4-yl)vinyl)phenyl)acrylic acid]: in the assay with MCF-7 cells, the “MCF7 Viability Assay Max Response” value was “++ (++ = a single % value ≧ 40%)” and the IC50 was at most 0.1 µM. In addition, at ER-α in MCF-7 cells, the Emax was at least 40% and the DC50 was at most 0.1 µM.
In the case of `N#Cc1ccc(/C(=C(\c2ccc(/C=C/C(=O)O)cc2)c2ccc3[nH]nc(F)c3c2)C2CCC2)c(F)c1` [Example 48, (E)-3-(4-((E)-2-(4-Cyano-2-fluorophenyl)-2-cyclobutyl-1-(3-fluoro-1H-indazol-5-yl)vinyl)phenyl)acrylic acid], in the assay on MCF-7 cells, the “MCF7 Viability Assay Max Response” value is on record as “++ (++ = a single % value ≧ 40%)” and the IC50 was at most 0.1 µM. At ER-α in MCF-7 cells, the Emax was at least 40% and the DC50 was at most 0.1 µM.

By IC50 is commonly meant the concentration needed to halve the response being measured. High values mean a need for much substance, low ones inhibition by little substance.

Source of the values: patent US9499538B2, “Estrogen receptor modulators and uses thereof” (Seragon Pharmaceuticals, Inc., priority 2012, dated 2016).
